Conditions: pH 7.4

carbonic anhydrase
t1/2 for release into solution: 24 min

myoglobin
t1/2 for release into solution: ~20 min

Source: patent publication US12478680B2, “Hydrogels with biodegradable crosslinking” (ProLynx LLC, priority 2011, dated 2025)
